Biological target: T1, Isoform 2 of Nuclear receptor ROR-alpha (Alpha-2) (Homo sapiens, UniProt P35398)
T1 sequence (P35398 whole entry): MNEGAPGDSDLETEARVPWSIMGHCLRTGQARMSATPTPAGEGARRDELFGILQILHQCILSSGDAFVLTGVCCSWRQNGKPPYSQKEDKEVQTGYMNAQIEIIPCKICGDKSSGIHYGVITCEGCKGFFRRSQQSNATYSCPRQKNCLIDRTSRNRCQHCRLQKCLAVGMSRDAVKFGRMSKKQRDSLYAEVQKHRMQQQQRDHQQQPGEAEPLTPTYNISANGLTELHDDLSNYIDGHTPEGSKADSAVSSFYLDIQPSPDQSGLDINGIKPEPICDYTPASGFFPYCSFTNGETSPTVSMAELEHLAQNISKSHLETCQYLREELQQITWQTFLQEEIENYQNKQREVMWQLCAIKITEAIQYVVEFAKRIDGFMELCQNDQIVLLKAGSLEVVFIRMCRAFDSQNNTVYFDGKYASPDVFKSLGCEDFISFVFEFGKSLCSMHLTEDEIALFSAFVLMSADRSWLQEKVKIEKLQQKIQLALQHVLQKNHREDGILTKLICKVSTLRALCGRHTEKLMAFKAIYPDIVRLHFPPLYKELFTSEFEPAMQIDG
Experiment: RORA ligand-binding domain transactivation agonists – cell-based, CHO-K1, Gal4-RORA LBD, luciferase luminescence, dose response (AID 681)

[1] = inactive by the depositor's call

Compound	EC50 [nM]	EC50 [1] [nM]
O=C1N(CCCN2C(=O)C3(OCCO3)c3ccccc32)c2ccccc2C12OCCO2 [1'-[3-(2'-ketospiro[1,3-dioxolane-2,3'-indoline]-1'-yl)propyl]spiro[1,3-dioxolane-2,3'-indoline]-2'-one]	> 99000	–
COc1cc(C)c(C(C)C)cc1S(=O)(=O)n1cnc(C)c1 [1-(2-methoxy-4-methyl-5-propan-2-yl-phenyl)sulfonyl-4-methyl-imidazole]	1850	–
CN1CCN(S(=O)(=O)c2ccc(Br)s2)CC1 [1-(5-bromanylthiophen-2-yl)sulfonyl-4-methyl-piperazine]	> 99000	–
Clc1ccccc1OCCn1cnc2ccccc21 [1-[2-(2-chloranylphenoxy)ethyl]benzimidazole]	> 1220	–
O=C(c1ccc(-c2nnc(-c3ccccc3)o2)cc1)N1CCCCCC1 [1-azepanyl-[4-(5-phenyl-1,3,4-oxadiazol-2-yl)phenyl]methanone]	282	–
Cn1c(SCc2ccccc2F)nc2cccnc21 [2-(2-Fluoro-benzylsulfanyl)-3-methyl-3H-imidazo[4,5-b]pyridine]	1980	–
Clc1ccc(-c2nnc(-c3ccccc3Cl)o2)cc1 [2-(2-chlorophenyl)-5-(4-chlorophenyl)-1,3,4-oxadiazole]	431	–
COc1ccc(Nc2oc(-c3ccccc3Cl)nc2C#N)cc1 [2-(2-chlorophenyl)-5-(4-methoxyanilino)-1,3-oxazole-4-carbonitrile]	1920	–
O=c1c2ccccc2nc2ccc(NCc3ccco3)nn12 [2-(2-furanylmethylamino)-10-pyridazino[6,1-b]quinazolinone]	–	10800
CCCCOC(=O)C(C)Oc1ccc(=O)n(-c2ccccc2)n1 (configuration not stated) [2-(6-keto-1-phenyl-pyridazin-3-yl)oxypropionic acid butyl ester]	> 99000	–
CCOC(=O)c1ccccc1NC(=O)CSc1nnnn1C1CCCCC1 [2-[2-(1-Cyclohexyl-1H-tetrazol-5-ylsulfanyl)-acetylamino]-benzoic acid ethyl ester]	> 99000	–
Cc1cc(NCCOCCO)n2ncc(-c3ccc(Cl)cc3)c2n1 [2-[2-[[3-(4-chlorophenyl)-5-methyl-7-pyrazolo[1,5-a]pyrimidinyl]amino]ethoxy]ethanol]	536	–
CCCCOc1ccc(-c2nnn(CC(=O)NCc3ccco3)n2)cc1 [2-[5-(4-Butoxy-phenyl)-tetrazol-2-yl]-N-furan-2-ylmethyl-acetamide]	5070	–
Nc1c(C(=O)NCCN2CCOCC2)c2nc3ccccc3nc2n1-c1ccc2c(c1)OCO2 [2-amino-1-(1,3-benzodioxol-5-yl)-N-(2-morpholin-4-ylethyl)pyrrolo[3,2-b]quinoxaline-3-carboxamide]	> 1100	–
O=C(c1ccco1)N1CCN(c2ncnc3c(-c4ccccc4)nsc23)CC1 [2-furanyl-[4-(3-phenyl-7-isothiazolo[4,5-d]pyrimidinyl)-1-piperazinyl]methanone]	4340	–
COCCOC(=O)c1[nH]c2c(c1C)C(=O)CC(c1cc(OC)ccc1OC)C2 (configuration not stated) [2-methoxyethyl 6-(2,5-dimethoxyphenyl)-3-methyl-4-oxo-1,5,6,7-tetrahydroindole-2-carboxylate]	> 3670	–
Cc1cc(N)c(NC2=CC(=O)CC(C)(C)C2)cc1C [3-(2-amino-4,5-dimethyl-anilino)-5,5-dimethyl-cyclohex-2-en-1-one]	> 99000	–
CC(=O)C(C)Oc1ccc2c3c(c(=O)oc2c1C)CCCC3 (configuration not stated) [3-(2-keto-1-methyl-propoxy)-4-methyl-7,8,9,10-tetrahydrobenzo[c]chromen-6-one]	628	–
COc1cccc(-c2noc(-c3cccs3)n2)c1 [3-(3-methoxyphenyl)-5-(2-thienyl)-1,2,4-oxadiazole]	> 407	–

Compound	EC50 [nM]	EC50 [1] [nM]
COc1cccc(-c2noc(-c3cccnc3)n2)c1 [3-(3-methoxyphenyl)-5-(3-pyridinyl)-1,2,4-oxadiazole]	853	–
O=C1OC(N2CCN(Cc3ccccc3)CC2)c2ccccc21 (configuration not stated) [3-(4-benzylpiperazin-1-yl)-3H-2-benzofuran-1-one]	> 99000	–
Cc1cc(NC(=O)c2oc3ccccc3c2C)ccc1-n1cnnn1 [3-Methyl-benzofuran-2-carboxylic acid (3-methyl-4-tetrazol-1-yl-phenyl)-amide]	8220	–
CCn1c(-c2ccc(N(C)C)cc2)nc2ccccc21 [4-(1-ethyl-2-benzimidazolyl)-N,N-dimethylaniline]	823	–
COc1ccccc1-c1nc(-c2ccncc2)no1 [4-[5-(2-Methoxy-phenyl)-[1,2,4]oxadiazol-3-yl]-pyridine]	3440	–
Cc1ccccc1Cn1ccc(NC(=O)c2onc(C)c2Cl)n1 [4-chloranyl-3-methyl-N-[1-[(2-methylphenyl)methyl]pyrazol-3-yl]-1,2-oxazole-5-carboxamide]	> 11000	–
COc1ccc(C(=O)Nc2cc(C)on2)cc1 [4-methoxy-N-(5-methyl-1,2-oxazol-3-yl)benzamide]	1050	–
Cc1ccc(-c2nc(C#N)c(NCc3ccco3)o2)cc1 [5-(2-furanylmethylamino)-2-(4-methylphenyl)-4-oxazolecarbonitrile]	2320	–
Oc1coc2ccc(OCc3ccc(F)cc3)cc12 [5-(4-fluorobenzyl)oxycoumaran-3-one]	3630	–
CCOc1ccc(-c2nc(C#N)c(NC3CC3)o2)cc1 [5-(cyclopropylamino)-2-(4-ethoxyphenyl)-1,3-oxazole-4-carbonitrile]	624	–
Cc1ccc2nc(Nc3ccc4[nH]c(O)nc4c3)c(-n3nc(C)cc3C)nc2c1 [5-[[3-(3,5-dimethyl-1-pyrazolyl)-6-methyl-2-quinoxalinyl]amino]-1,3-dihydrobenzimidazol-2-one]	> 3670	–
COc1cccc(NC(=O)c2nnn(Cc3ccc(Br)cc3F)c2N)c1 [5-amino-1-(4-bromo-2-fluoro-benzyl)-N-(3-methoxyphenyl)triazole-4-carboxamide]	4570	–
O=C(Nc1ccc(N2CCCCC2)cc1)c1cncc(Br)c1 [5-bromanyl-N-(4-piperidin-1-ylphenyl)pyridine-3-carboxamide]	1020	–
CCOc1cc(N2CCOCC2)c(OCC)cc1NS(=O)(=O)c1ccc(Cl)s1 [5-chloranyl-N-(2,5-diethoxy-4-morpholin-4-yl-phenyl)thiophene-2-sulfonamide]	2640	–
CCN(CCCNC(=O)c1cn(CC)c2ccc(S(=O)(=O)N(C)C)cc2c1=O)c1cccc(C)c1 [6-(dimethylsulfamoyl)-1-ethyl-N-[3-(N-ethyl-3-methyl-anilino)propyl]-4-keto-quinoline-3-carboxamide]	> 99000	–
COC(=O)c1c(NC(=O)CC2SCC(C(=O)OC)NC2=O)sc2c1CCCC2 (configuration not stated) [6-[2-[(3-carbomethoxy-4,5,6,7-tetrahydrobenzothiophen-2-yl)amino]-2-keto-ethyl]-5-keto-thiomorpholine-3-carboxylic acid methyl ester]	> 99000	–
Cc1cccn2cc(-c3ccccc3)nc12 [8-methyl-2-phenyl-imidazo[1,2-a]pyridine]	563	–
Cn1cccc1C(=O)OCc1csc(-c2ccccc2)n1 [(2-phenyl-1,3-thiazol-4-yl)methyl 1-methylpyrrole-2-carboxylate]	221	–
CCOC(=O)CSc1nc2cc(OCC)ccc2cc1C#N [(3-Cyano-7-ethoxy-quinolin-2-ylsulfanyl)-acetic acid ethyl ester]	1830	–

Compound	EC50 [nM]	EC50 [1] [nM]
CC1=CCC(COC(=O)Nc2ccccc2)CC1 (configuration not stated) [(4-methylcyclohex-3-en-1-yl)methyl N-phenylcarbamate]	1530	–
CCN(CC)C(=O)Oc1ccc2c(=O)c(-c3ccccc3)coc2c1 [(4-oxidanylidene-3-phenyl-chromen-7-yl) N,N-diethylcarbamate]	1240	–
CCOC(=O)Nc1ccc2c(c1)Nc1ccccc1S2 [(10H-Phenothiazin-2-yl)-carbamic acid ethyl ester]	3430	–
C=CCOc1ccc(C=CC(C)N=O)cc1 (configuration not stated) [(E)-4-(4-allyloxyphenyl)but-3-en-2-one oxime]	1350	–
CCOc1ccc(C=CC(C)N=O)cc1 (configuration not stated) [(Z)-4-(4-ethoxyphenyl)-3-buten-2-one oxime]	491	–
CC(C)CNS(=O)(=O)c1ccc(C(=O)Nc2ccc3c(c2)OCCO3)cc1 [MLS000032888]	3480	–
COc1ccc(C(O)P(=O)(O)CCc2ccccc2)cc1 (configuration not stated) [MLS000038577]	> 99000	–
COc1ccc(C(=O)n2c(-c3ccco3)nc3ccccc32)cc1 [MLS000039368]	4000	–
COc1ccccc1-c1nnc(NC(C)=O)s1 [MLS000041972]	1750	–
CCn1c(Cn2nnc(-c3ccccc3)n2)nnc1SCC(=O)Nc1ccc(C(C)=O)cc1 [MLS000068275]	> 99000	–
CCOc1ccc2nc(NC(=O)c3cnccn3)sc2c1 [MLS000070707]	> 136	–
COc1ccc2nc(NC(=O)CSc3nnc(-c4ccoc4C)n3C)sc2c1 [MLS000073639]	2030	–
CCc1nnc2c3cnn(-c4ccccc4)c3ncn12 [MLS000080478]	> 3670	–
O=C(NC1CCCC1)c1cc(-c2cccs2)on1 [MLS000087238]	1030	–
O=C(NCc1cccs1)c1noc2c1CCCC2 [MLS000087354]	–	10100
Cc1ccc2c(c1)c1c3n2CCCNC3CCC1 (configuration not stated) [MLS000105423]	> 99000	–
COc1ccc(CCC(=O)Nc2ccc3c(c2)OCCO3)cc1 [MLS000110197]	> 99000	–
CCOc1ccc2nc(N3CCC(C(=O)N4CCN(c5ccccn5)CC4)CC3)sc2c1 [MLS000119552]	> 3670	–
O=C(Nc1nnc(C23CC4CC(CC(C4)C2)C3)s1)c1ccco1 [N-[5-(1-adamantyl)-1,3,4-thiadiazol-2-yl]furan-2-carboxamide]	317	–

Source: BindingDB's records for doi:10.7270/Q2RJ4GVG (The Scripps Research Institute Molecular Screening Center, 2007)
